Results published in patent US9669034B2, “4-aryl-N-phenyl-1,3,5-triazin-2-amines containing a sulfoximine group” (BAYER INTELLECTUAL PROPERTY GMBH, priority 2011, dated 2017).
Where two headings read alike, the source gives them in different places.

Key:
CDK9/CycT1 = CDK9/CycT1 (Homo sapiens (Human), UniProt P50750); assay: CDK9/CycT1 kinase assay (TR-FRET); assay type: biochemical; settings: Method 1
From the text: 1. CDK9/CycT1 Kinase Assay:
CDK9/CycT1—inhibitory activity of compounds of the present invention was quantified employing the CDK9/CycT1 TR-FRET assay as described in the following paragraphs:
Recombinant full-length His-tagged human CDK9 and CycT1, expressed in insect cells and purified by Ni-NTA affinity chromatography, were purchased from Invitrogen (Cat. No PV4131). As substrate for the kinase reaction biotinylated peptide biotin-Ttds-[…]

CDK2/CycE = CDK2/CycE (Homo sapiens (Human), UniProt P24941); assay: CDK2/CycE kinase assay (TR-FRET); assay type: biochemical; settings: Method 2
From the text: 2. CDK2/CycE Kinase Assay:
CDK2/CycE—inhibitory activity of compounds of the present invention was quantified employing the CDK2/CycE TR-FRET assay as described in the following paragraphs:
Recombinant fusion proteins of GST and human CDK2 and of GST and human CycE, expressed in insect cells (Sf9) and purified by Glutathion-Sepharose affinity chromatography, were purchased from ProQinase GmbH (Freiburg, Germany). As substrate for the kinase reaction biotinylated peptide biotin-Ttds-[…]

[1] = system: HeLa human cervical tumour cells; assay: Proliferation assay (crystal violet), HeLa; assay type: cell-based; settings: Method 3, read-out: Inhibition of HeLa cell proliferation, IC50
Description: Cultivated tumour cells (NCI-H460, human non-small cell lung carcinoma cells, ATCC HTB-177; DU145, hormone-independent human prostate carcinoma cells, ATCC HTB-81; HeLa-MaTu, human cervical carcinoma cells, EPO-GmbH, Berlin; HeLa-MaTu-ADR, multidrug-resistant human cervical carcinoma cells, EPO-GmbH, Berlin; HeLa human cervical tumour cells, ATCC CCL-2; Caco-2 human colorectal carcinoma, ATCC HTB-37; B16F10 mouse melanoma cells, ATCC CRL-6475) were plated at a density of 5000 cells/well (DU145, HeLa-MaTu-ADR), 3000 cells/well (NCI-H460, HeLa-MaTu, HeLa), 1500 cells/well (Caco-2), or 1000 cells/well (B16 F10) in a 96-well multititer plate in 200 μL of their respective growth medium supplemented 10% fetal calf serum. After 24 hours, the cells of one plate (zero-point plate) were stained with crystal violet (see below), while the medium of the other plates was replaced by fresh culture medium (200 μL), to which the test substances were added in various concentrations (0 M, as well as in the range of […]; the final concentration of the solvent dimethylsulfoxide was 0.5%). The cells were incubated for 4 days in the presence of test substances. Cell proliferation was determined by staining the cells with crystal violet: the cells were fixed by adding 20 μL/measuring point of an 11% glutaric aldehyde solution for 15 minutes at room temperature. After three washing cycles of the fixed cells with water, the plates were dried at room temperature. The cells were stained by adding 100 μL/measuring point of a 0.1% crystal violet solution (pH 3.0). After three washing cycles of the stained cells with water, the plates were dried at room temperature. The dye was dissolved by adding 100 μL/measuring point of a 10% acetic acid solution. The absorbance was determined by photometry at a wavelength of 595 nm. The change of cell number, in percent, was calculated by normalization of the measured values to the absorbance values of the zero-point plate (=0%) and the absorbance of the untreated (0 M) cells (=100%). The IC50 values were determined by means of a 4 parameter fit.

Sequence of CDK9/CycT1 (P50750 whole entry): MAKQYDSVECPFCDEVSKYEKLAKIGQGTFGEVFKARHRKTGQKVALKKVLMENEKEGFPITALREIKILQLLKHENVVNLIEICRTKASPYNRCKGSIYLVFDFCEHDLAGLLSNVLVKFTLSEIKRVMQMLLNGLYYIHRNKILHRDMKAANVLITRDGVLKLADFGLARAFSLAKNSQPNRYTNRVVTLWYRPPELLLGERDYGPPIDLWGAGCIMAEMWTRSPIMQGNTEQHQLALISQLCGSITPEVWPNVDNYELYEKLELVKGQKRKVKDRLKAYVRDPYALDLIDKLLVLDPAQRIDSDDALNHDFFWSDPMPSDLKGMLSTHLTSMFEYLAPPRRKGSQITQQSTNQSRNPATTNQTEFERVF
Sequence of CDK9/CycT1 (O60563 whole entry partner): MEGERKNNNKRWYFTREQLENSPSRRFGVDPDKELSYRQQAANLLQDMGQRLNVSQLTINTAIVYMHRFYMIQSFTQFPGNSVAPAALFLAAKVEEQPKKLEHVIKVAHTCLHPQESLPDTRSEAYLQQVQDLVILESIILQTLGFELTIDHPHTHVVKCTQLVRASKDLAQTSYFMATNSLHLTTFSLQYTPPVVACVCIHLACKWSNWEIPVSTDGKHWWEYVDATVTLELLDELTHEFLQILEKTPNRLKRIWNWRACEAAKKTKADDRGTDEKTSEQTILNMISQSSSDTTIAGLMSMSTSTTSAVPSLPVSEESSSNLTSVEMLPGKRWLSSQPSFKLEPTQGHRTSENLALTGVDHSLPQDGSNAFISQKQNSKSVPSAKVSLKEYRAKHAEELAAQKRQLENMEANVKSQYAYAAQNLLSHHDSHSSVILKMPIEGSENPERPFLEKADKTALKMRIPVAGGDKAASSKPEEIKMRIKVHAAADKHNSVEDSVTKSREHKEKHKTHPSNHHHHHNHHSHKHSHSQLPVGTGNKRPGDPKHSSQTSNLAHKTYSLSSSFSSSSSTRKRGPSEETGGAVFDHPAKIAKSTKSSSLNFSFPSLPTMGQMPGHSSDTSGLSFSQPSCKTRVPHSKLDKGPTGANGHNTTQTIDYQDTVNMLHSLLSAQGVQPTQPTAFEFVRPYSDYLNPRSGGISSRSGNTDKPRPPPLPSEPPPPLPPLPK

Compound | IC50 (CDK9/CycT1) [µM] | IC50 (CDK2/CycE) [µM] | IC50 ([1]; Homo sapiens, HeLa) [µM] | IC50 [1] [µM]
COc1cc(F)ccc1-c1ncnc(Nc2ccc(Cl)c(CS(C)(=N)=O)c2)n1 (racemic) [Example 59, (rac)-N-{4-Chloro-3-[(S-methylsulfonimidoyl)methyl]phenyl}-4-(4-fluoro-2-methoxyphenyl)-1,3,5-triazin-2-amine] | 0.026 | 1.4 | 0.86 | 
CS(=N)(=O)Cc1cccc(Nc2ncnc(-c3ccc(F)cc3OCc3ccc(C(F)(F)F)cc3)n2)c1 (racemic) [Example 86, (rac)-4-(4-Fluoro-2-{[4-(trifluoromethyl)benzyl]oxy}phenyl)-N-{3-[(S-methylsulfonimidoyl)methyl]phenyl}-1,3,5-triazin-2-amine] | 0.008 | 1.4 | 1.1 | 
CS(=N)(=O)Cc1cccc(Nc2ncnc(-c3ccc(F)cc3OCc3ccc(F)c(F)c3)n2)c1 (racemic) [Example 80, (rac)-4-{2-[(3,4-Difluorobenzyl)oxy]-4-fluorophenyl}-N-{3-[(S-methylsulfonimidoyl)methyl]phenyl}-1,3,5-triazin-2-amine] | 0.013 | 1 | 0.73 | 
Cc1cc(COc2cc(F)ccc2-c2ncnc(Nc3cccc(CS(C)(=N)=O)c3)n2)ccc1F (racemic) [Example 96, (rac)-4-{4-Fluoro-2-[(4-fluoro-3-methylbenzyl)oxy]phenyl}-N-{3-[(S-methylsulfonimidoyl)methyl]phenyl}-1,3,5-triazin-2-amine] | 0.003 | 0.35 | 1 | 
COc1cc(F)ccc1-c1ncnc(Nc2ccc(Cl)c(CS(C)(=N)=O)c2)n1 (single isomer, unassigned) [Example 59.a, N-{4-Chloro-3-[(S-methylsulfonimidoyl)methyl]phenyl}-4-(4-fluoro-2-methoxyphenyl)-1,3,5-triazin-2-amine] | 0.025 | 2.9 | 1.1 | 
CS(=N)(=O)Cc1cccc(Nc2ncnc(-c3ccc(F)cc3OCc3cc(F)c(F)cc3F)n2)c1 (racemic) [Example 103, (rac)-4-{4-Fluoro-2-[(2,4,5-trifluorobenzyl)oxy]phenyl}-N-{3-[(S-methylsulfonimidoyl)methyl]phenyl}-1,3,5-triazin-2-amine] | 0.007 | 1.2 | 1.1 | 
COc1cc(F)ccc1-c1ncnc(Nc2ccc(Cl)c(CS(C)(=N)=O)c2)n1 (single isomer, unassigned) [Example 59.b, N-{4-Chloro-3-[(S-methylsulfonimidoyl)methyl]phenyl}-4-(4-fluoro-2-methoxyphenyl)-1,3,5-triazin-2-amine] | 0.033 | 1.8 |  | 1.1
CS(=N)(=O)Cc1cccc(Nc2ncnc(-c3ccc(F)cc3OCCCC(F)(F)F)n2)c1 (racemic) [Example 100, (rac)-4-[4-Fluoro-2-(4,4,4-trifluorobutoxy)phenyl]-N-{3-[(S-methylsulfonimidoyl)methyl]phenyl}-1,3,5-triazin-2-amine] | 0.006 | 1.3 | 0.92 | 
COc1cc(F)ccc1-c1ncnc(Nc2cccc(CS(=N)(=O)C3CCOCC3)c2)n1 (racemic) [Example 58, (rac)-4-(4-Fluoro-2-methoxyphenyl)-N-(3-{[S-(tetrahydro-2H-pyran-4-yl)sulfonimidoyl]methyl}phenyl)-1,3,5-triazin-2-amine] | 0.089 | 5.2 |  | 
CCOC(=O)N=S(C)(=O)Cc1cccc(Nc2ncnc(-c3cccc(Cl)c3OC)n2)c1 (racemic) [Example 45, (rac)-Ethyl [(3-{[4-(3-chloro-2-methoxyphenyl)-1,3,5-triazin-2-yl]amino}benzyl)(methyl)oxido-λ^6-sulfanylidene]carbamate] | 0.82 | 9 |  | 
CCOC(=O)N=S(C)(=O)Cc1cccc(Nc2ncnc(-c3ccc(Cl)cc3OC)n2)c1 (racemic) [Example 11, (rac)-Ethyl [(3-{[4-(4-chloro-2-methoxyphenyl)-1,3,5-triazin-2-yl]amino}benzyl)(methyl)oxido-λ^6-sulfanylidene]carbamate] | 0.023 | 5.5 |  | 
CCOC(=O)N=S(C)(=O)Cc1cccc(Nc2ncnc(-c3cc(F)ccc3OC)n2)c1 (racemic) [Example 20, (rac)-Ethyl [(3-{[4-(5-fluoro-2-methoxyphenyl)-1,3,5-triazin-2-yl]amino}benzyl)(methyl)oxido-λ^6-sulfanylidene]carbamate] | 0.022 | 2 |  | 

The next lines start with the values.

IC50 (CDK9/CycT1) [µM] | IC50 (CDK2/CycE) [µM] | IC50 ([1]; Homo sapiens, HeLa) [µM] | IC50 [1] [µM] | Compound
0.007 | 2 | 0.68 |  | CS(=N)(=O)Cc1cccc(Nc2ncnc(-c3ccc(F)cc3OCc3ccon3)n2)c1 (racemic) [Example 93, (rac)-4-[4-Fluoro-2-(1,2-oxazol-3-ylmethoxy)phenyl]-N-{3-[(S-methylsulfonimidoyl)methyl]phenyl}-1,3,5-triazin-2-amine]
 | 0.94 | 1.2 |  | CS(=N)(=O)Cc1cccc(Nc2ncnc(-c3cccc4c3OCCC4)n2)c1 (racemic) [Example 30, (rac)-4-(3,4-Dihydro-2H-chromen-8-yl)-N-{3-[(S-methylsulfonimidoyl)methyl]phenyl}-1,3,5-triazin-2-amine]
0.008 | 1 | 1 |  | CCS(=N)(=O)Cc1cccc(Nc2ncnc(-c3ccc(F)cc3OC)n2)c1 (racemic) [Example 108, (rac)-N-{3-[(S-ethylsulfonimidoyl)methyl]phenyl}-4-(4-fluoro-2-methoxyphenyl)-1,3,5-triazin-2-amine]
0.021 | 1.8 | 1.1 |  | CS(=N)(=O)Cc1cccc(Nc2ncnc(-c3ccc(F)cc3OCC(F)F)n2)c1 (racemic) [Example 95, (rac)-4-[2-(2,2-Difluoroethoxy)-4-fluorophenyl]-N-{3-[(S-methylsulfonimidoyl)methyl]phenyl}-1,3,5-triazin-2-amine]
0.035 | 4.6 |  |  | COc1ccccc1-c1ncnc(Nc2cccc(CS(C)(=N)=O)c2)n1 (racemic) [Example 26, (rac)-4-(2-Methoxyphenyl)-N-{3-[(S-methylsulfonimidoyl)methyl]phenyl}-1,3,5-triazin-2-amine]
0.028 | 6.3 | 1.1 |  | CCOC(=O)N=S(C)(=O)Cc1cccc(Nc2ncnc(-c3ccccc3OC)n2)c1 (racemic) [Example 25, (rac)-Ethyl [(3-{[4-(2-methoxyphenyl)-1,3,5-triazin-2-yl]amino}benzyl)(methyl)oxido-λ^6-sulfanylidene]carbamate]
0.024 | 1.6 | 1.7 |  | CS(=N)(=O)Cc1cccc(Nc2ncnc(-c3ccc(F)cc3OCc3cccnc3)n2)c1 (racemic) [Example 66, (rac)-4-[4-Fluoro-2-(pyridin-3-ylmethoxy)phenyl]-N-{3-[(S-methylsulfonimidoyl)methyl]phenyl}-1,3,5-triazin-2-amine]
0.015 | 1.2 |  |  | CS(=N)(=O)Cc1cccc(Nc2ncnc(-c3ccccc3OCc3ccc(Cl)c(Cl)c3)n2)c1 (racemic) [Example 61, (rac)-4-{2-[(3,4-Dichlorobenzyl)oxy]phenyl}-N-{3-[(S-methylsulfonimidoyl)methyl]phenyl}-1,3,5-triazin-2-amine]
0.097 | 6.9 |  |  | CS(=N)(=O)Cc1cccc(Nc2ncnc(-c3ccc(F)cc3OCc3ccccn3)n2)c1 (racemic) [Example 67, (rac)-4-[4-Fluoro-2-(pyridin-2-ylmethoxy)phenyl]-N-{3-[(S-methylsulfonimidoyl)methyl]phenyl}-1,3,5-triazin-2-amine]
0.064 | 3.1 |  |  | CS(=N)(=O)Cc1cccc(Nc2ncnc(-c3cccc4c3OCC4)n2)c1 (single isomer, unassigned) [Example 35, 4-(2,3-Dihydro-1-benzofuran-7-yl)-N-{3-[(S-methylsulfonimidoyl)methyl]phenyl}-1,3,5-triazin-2-amine]
